Patent publication US20140303145A1, “PHARMACEUTICAL COMPOSITION COMPRISING A POORLY WATER-SOLUBLE ACTIVE INGREDIENT, A SURFACTANT AND A WATER-SOLUBLE POLYMER” (NOVARTIS AG, priority 2001, published 2014)

Key:
Format in all cases: physicochemical
[1] = Dissolution behaviour of tablets (Paddle method USP XXIV, SIFmod); settings: based on a 25 mg dosage; 1 litre SIFmod pH 6.8; tablet test
Procedure: (§1) The medium used for the dissolution behaviour test is 1 litre of a surfactant-free, modified medium according to “Intestinal Fluid, Simulated, TS” from USP XXIV (SIFmod). KH2PO4 is replaced by NaH2PO4. Pancreatin is not added (pH 6.8).
The dissolution test is carried out according to the “Paddle method” of USP XXIV at 37° C. and at a stirring rate of 50 rpm with a Sotax AT6 (Sotax, Basle, Switzerland). The tablets were added and the amounts of active ingredient released were analysed.
The average amounts of active ingredient released from each of 3 tablets of 25 mg PKC412 according to examples C4-C6 are given in Table 8 as a percentage of the theoretical content.

[2] = Water solubility of PKC412
Procedure: (water solubility: <0.1 mg/l), which is referred to hereinafter as PKC412.

[3] = Dissolution behaviour of capsules (Paddle method USP XXIV, SIFmod); settings: based on a 25 mg dosage; 1 litre SIFmod pH 6.8; capsule test
Procedure: as §1
The dissolution test is carried out according to the “Paddle method” of USP XXIV at 37° C. and at a stirring rate of 50 rpm with a Sotax AT6 (Sotax, Basle, Switzerland). The capsules are placed in a teflon-coated sinker (ATN, Pfaffenheim, France), in order to allow them to remain on the bottom of the dissolution container.
The average amounts of active ingredient released from each of 3 capsules of 25 mg PKC412 according to examples C1 and C2 are given in Table 7 as a percentage of the theoretical content.

comparable solubility of untreated PKC412 [1]: < 0.4 % of the theoretical content
solubility [2]: < 0.1 µg/mL
comparable solubility of untreated PKC412 [3]: < 0.4 % of the theoretical content
Compound: CO[C@@H]1[C@H](N(C)C(=O)c2ccccc2)C[C@H]2O[C@]1(C)n1c3ccccc3c3c4c(c5c6ccccc6n2c5c31)C(=O)NC4 [PKC412]
